Experimental data reported in the NIST ThermoML archive (doi:10.1021/acs.jced.6b00673).
Where “and” joins values, the source holds several entries; their conditions need not be identical. Identical values can stand only once.

Settings: Liquid, Closed cell (Static) method

F/C=C/C(F)(F)F [trans-1,3,3,3-tetrafluoropropene]
Settings | vapor or sublimation pressure
235.01 K | 40.19 kPa
235.17 K | 40.58 kPa
239.05 K | 49.6 kPa
239.07 K | 49.6 kPa and 49.61 kPa
242.03 K | 57.54 kPa
242.04 K | 57.54 kPa
245.15 K | 66.85 kPa
245.16 K | 66.94 kPa and 66.9 kPa
247.99 K | 76.45 kPa
248.02 K | 76.52 kPa
249.38 K | 81.49 kPa
250.68 K | 86.48 kPa
250.72 K | 86.57 kPa
252.24 K | 92.69 kPa and 92.75 kPa
252.58 K | 94.2 kPa
256.25 K | 110.47 kPa
258.72 K | 122.66 kPa
258.74 K | 122.75 kPa
262.01 K | 140.52 kPa
264.78 K | 157.04 kPa
268.27 K | 179.98 kPa
271.72 K | 205.14 kPa
274.51 K | 227.45 kPa
277.43 K | 252.66 kPa
280.73 K | 283.77 kPa
284.07 K | 318.06 kPa
287.25 K | 353.65 kPa
290.51 K | 393.03 kPa
293.33 K | 429.86 kPa
296.67 K | 476.7 kPa
299.73 K | 523.05 kPa
302.71 K | 571.25 kPa
303.98 K | 592.72 kPa
306.42 K | 635.82 kPa and 635.84 kPa
308.5 K | 674.57 kPa
311.91 K | 741.32 kPa and 741.51 kPa
314.3 K | 791.29 kPa
314.31 K | 791.42 kPa
316.04 K | 829.03 kPa and 829.14 kPa
318.53 K | 885.61 kPa
319.38 K | 905.41 kPa and 905.49 kPa
320.96 K | 943.34 kPa
323.48 K | 1006.1 kPa
325.23 K | 1051.7 kPa
327.75 K | 1119.9 kPa
329.78 K | 1177.5 kPa
332.09 K | 1245.2 kPa
334.3 K | 1312.8 kPa
336.51 K | 1383.2 kPa
338.43 K | 1446.6 kPa
340.44 K | 1515 kPa
342.65 K | 1593.5 kPa
344.94 K | 1678 kPa
347.25 K | 1766.4 kPa
349.48 K | 1855 kPa
351.21 K | 1926.4 kPa
353.31 K | 2015.3 kPa
355.52 K | 2112.5 kPa
358.52 K | 2250 kPa
360.61 K | 2349.9 kPa
362.53 K | 2444.8 kPa
364.71 K | 2556.2 kPa
366.86 K | 2669.6 kPa
367.85 K | 2724.3 kPa
368.95 K | 2784.2 kPa
369.85 K | 2835.5 kPa
371.01 K | 2900.6 kPa
371.91 K | 2953.8 kPa
372.81 K | 3005.5 kPa
374.07 K | 3082.4 kPa
374.9 K | 3131.7 kPa
376.04 K | 3203.1 kPa
377.04 K | 3265.4 kPa
377.94 K | 3323.5 kPa
378.57 K | 3364.9 kPa
379.16 K | 3402.3 kPa
379.51 K | 3425.9 kPa
379.87 K | 3450.3 kPa
380.02 K | 3459.7 kPa
380.51 K | 3493.5 kPa
